Assay results reported in patent publication US7056929B2, “Benzo[b]pyrano[3,2-h]acridin-7-one compounds” (Les Laboratoires Servier, priority 2001, dated 2006).
Where two headings read alike, the source gives them in different places. Marks after values point to notes of the source that are not given here.

What was measured:
[1] = system: P388 (murine leukaemia); test: Anti-tumour activity with respect to P388 leukaemia in mice; type: in vivo; conditions: P388 i.p. in B6D2F1 mice, products i.v. on day 1
Protocol: Line P388 (murine leukaemia) was supplied by the National Cancer Institute (Frederick, USA). The tumour cells (10^6 cells) were inoculated on day 0 into the peritoneal cavity of female B6D2F1 mice (Iffa Credo, France). Six mice weighing from 18 to 20 g were used in each test group. The products were administered by the intravenous route on day 1. The anti-tumour activity is expressed as % T/C: […]

[2] = system: C38 adenocarcinoma of the colon; test: Anti-tumour activity with respect to C38 adenocarcinoma of the colon in mice; type: in vivo; conditions: for anti-tumour activity (% T/C): C38 s.c. in B6D2F1 mice, tumour volume; for T/C (tumor growth), C38: Table 3
Protocol: Tumour fragments of C38 adenocarcinoma of the colon weighing approximately 30 mg were implanted under the skin of B6D2F1 mice (Iffa Credo, France) on day 0.
After growth of the tumour, the mice were divided into control (18 animals) and treated (6 or 7 animals) groups, which were homogeneous with respect to tumour size. The products were administered by the i.v. route once per week for 3 weeks (on days 10, 17 and 24), at their Maximum Tolerated Dose (MTD), MTD/2 and MTD/4. The tumours were measured twice a week and the tumour volumes were calculated according to the following formula: volume (mm^3)=length (mm)×breadth (mm^2)/2. The anti-tumour activity is expressed as % T/C:
[formula] V0 and Vt being the initial volume of the tumour and its volume at measurement time t, respectively.
The optimum dose is the dose giving the lowest T/C value without toxicity (early death or weight loss greater than 20%).
The procedure used in the anti-tumour activity with respect to C38 adenocarcinoma is the same as the procedure described in the present application at Example 28.

[3] = system: human A549 non-small cell lung carcinoma; test: Anti-tumour activity on A549 lung carcinoma in nude mice; type: in vivo; conditions: A549 in pleural space of nude mice, median survival time
Protocol: (§1) The anti-tumour activity of the compounds against the human A549 non-small cell lung carcinoma was evaluated essentially as described (Kraus-Berthier, L., Jan, M., Guilbaud, N., Naze, M., Pierré, A., and Atassi, G. Histology and sensitivity to anticancer drugs of two human non-small cell lung carcinomas implanted in the pleural cavity of nude mice. Clinical Cancer Res., 6, 297–304, 2000). Briefly, 10^6 A549 cells were implanted through the chest wall into the left pleural space of nude mice in a volume of 100 μl. Compounds were administered i.v. at three doses on days 14 and 24 after tumor graft. Animal mortality was checked daily and the anti-tumour activity was expressed as T/C %=(median survival time of treated group/median survival time of control group)×100. Results given in table 3 are the highest T/C values obtained at the maximum non-toxic dose, i.e. the optimal dose.

[4] = system: Murine leukaemia L1210
Protocol: (§2) Murine leukaemia L1210 was used in vitro. The cells are cultured in RPMI 1640 complete culture medium containing 10% foetal calf serum, 2 mM glutamine, 50 units/ml of penicillin, 50 μg/ml of streptomycin and 10 mM Hepes, pH: 7.4. The cells are distributed on microplates and exposed to the cytotoxic compounds for 4 doubling periods, or 48 hours. The number of viable cells is then quantified by means of a colorimetric assay, the Microculture Tetrazolium Assay (J. Carmichael et al., Cancer Res., 47, 936–942, (1987)). The results are expressed as IC50, the concentration of cytotoxic agent which inhibits the proliferation of the treated cells by 50%.

[5] = system: Human KB-3-1 (bucal epidermoïde carcinoma) cell
Protocol: as §2

[6] = system: human IGROV1 ovarian carcinoma; test: Anti-tumour activity on IGROV1 ovarian carcinoma in nude mice; type: in vivo; conditions: IGROV1 i.p. in nude mice, 12.5 mg/kg i.v. days 4 and 14, optimal dose; median survival time
Protocol: as §1
The anti-tumour activity of the compounds against the human IGROV1 ovarian carcinoma was evaluated essentially as described (Burbridge, M. F., Kraus-Berthier, L., Naze, M., Pierré, A., Atassi, G. and Guilbaud, N. Biological and pharmacological characterization of three models of human ovarian carcinoma established in nude mice: use of the CA125 tumor marker to predict antitumor activity. Int. J. Oncol., 15, 1155–1162, 1999). […] The anti-tumour activity was evaluated as described above for A549 lung carcinoma.

[7] = system: Human KB-3-1 (bucal epidermoïde carcinoma) cell; test: In vitro cytotoxicity on human KB-3-1 cells (procedure of Example 27)
Protocol: as §2

[8] = system: Murine leukaemia L1210; test: In vitro cytotoxicity on murine leukaemia L1210 (Microculture Tetrazolium Assay)
Protocol: as §2

[9] = Mus musculus, L1210, read-out: IC50 (μM), Cytotoxicity on Murine L 1210 cells
[10] = Homo sapiens, KB 3-1, read-out: IC50 (μM), Cytotoxicity on Human KB-3-1 (bucal epidermoïde carcinoma) cell

For COc1cc2c(c3c1c(=O)c1ccccc1n3C)C=CC(C)(C)O2 [acronycine, reference compound], the T/C [1] was “only marginally active” and the “anti-tumour activity (% T/C)” value ([2]; i.v. days 10, 17 and 24, optimum dose of 100 mg/kg) was 27%.
With “(±)-cis-1-Hydroxy-6-methoxy-2-pentenoyloxy-3,3,14-trimethyl-2,3,7,14-tetrahydro-1H-benzo[b]pyrano[3,2-h]acridin-7-one [Example 8]” the “T/C (tumor growth), C38” value ([2]; C38, dose 50 mg/kg i.v.) was 15%^a, the “T/C (survival), A549” value ([3]; 25 mg/kg i.v. days 14 and 24, optimal dose) was 340%^b and the IC50 [4] was 900 nM. The IC50 [5] was 100 nM.
“(±)-cis-1,2-Dipentenoyloxy-6-methoxy-3,3,14-trimethyl-2,3,7,14-tetrahydro-1H-benzo[b]pyrano[3,2-h]acridin-7-one [Example 7]” was tested, and the “T/C (tumor growth), C38” value ([2]; C38, dose 25 mg/kg i.v.) was 12%^a, the “anti-tumour activity (% T/C)” value ([2]; i.v. days 10, 17 and 24, optimum dose of 12.5 mg/kg) was 30% and the “T/C (survival), A549” value ([3]; 12.5 mg/kg i.v. days 14 and 24, optimal dose) was 218%^b. The “T/C (survival), IGROV1” value [6] was 148%^b, the IC50 ([7]; read-out: IC50 (μM), Cytotoxicity on Human KB-3-1 (bucal epidermoïde carcinoma) cell, KB-3-1 cells, procedure of Example 27, Table 2) was 0.14 µM and the IC50 ([8]; L1210 cells, exposure 4 doubling periods or 48 hours) was 0.52 µM. The IC50 ([8]; read-out: IC50 (μM), Cytotoxicity on Murine L 1210 cells, L1210 cells, procedure of Example 27, Table 1) was 0.5 µM.
With CCN(CC)C(=O)O[C@@H]1c2c(cc(OC)c3c(=O)c4cc5ccccc5cc4n(C)c23)OC(C)(C)[C@@H]1OC(=O)N(CC)CC (racemic) [Example 23, (±)-cis-1-{[(Diethylamino)carbonyl]oxy}-6-methoxy-3,3,14-trimethyl-7-oxo-2,3,7,14-tetrahydro-1H-benzo[b]pyrano[3,2-h]acridin-2-yl diethylcarbamate] the IC50 [8, 9] was 0.9 µM.
Cn1c2cc3ccccc3cc2c(=O)c2c(OCCO)cc3c(c21)C=CC(C)(C)O3 [Example 1, 6(2-Hydroxyethoxy)-3,3,14-trimethyl-3,14-dihydro-7H-benzo[b]-pyrano[3,2-h]acridin-7-one] was tested, and the IC50 [7, 10] was 0.5 µM.
COc1cc2c(c3c1c(=O)c1cc4ccccc4cc1n3C)[C@H](OC(=O)N(C)C)[C@H](OC(=O)N(C)C)C(C)(C)O2 [Example 11, (1S,2S)-1-{[(Dimethylamino)carbonyl]oxy}-6-methoxy-3,3,14-trimethyl-7-oxo-2,3,7,14-tetrahydro-1H-benzo[b]pyrano[3,2-h]acridin-2-yl dimethylcarbamate] was tested, and the “T/C (tumor growth), C38” value ([2]; C38, dose 25 mg/kg i.v.) was 41%^a, the “anti-tumour activity (% T/C)” value ([2]; i.v. days 10, 17 and 24, optimum dose of 25 mg/kg) was 41% and the IC50 [7, 10] was 0.4 µM. The IC50 ([8]; Mus musculus, L1210, 48 h) was 0.78 µM and the IC50 [8, 9] was 0.8 µM.
